Read-outs that look alike come from different tables or passages of the source.
Columns and labels:
Format in all cases: cell-based, human
HepG2 cells = assay: Cell growth under high-density conditions (SRB assay), delayed cell death (DCD); conditions: for Tox. (effective (toxic) concentration) in DCD: toxic compounds, rapid decrease in cell numbers; for Tox. (effective (toxic) concentration) in DCD / minimal effective concentration: high density HepG2 cultures; for minimal effective concentration: Homo sapiens
[1] = tested on: NAD(P) synthesis from niacinamide in HepG2 cells; assay: Determination of NAD(P) synthesis from [14C]niacinamide in HepG2 cells
From the text: The effect of the compounds on the synthesis of NAD(P) starting from niacinamide was investigated using for example the tumor cell line HepG2 according to the technique described in the experimental part below.
The inhibition of the NAD(P) synthesis from niacinamide by these compounds was investigated in HepG2 cells as described in the section “Material and Methods”. The compounds of Table 3 a were used at a concentration of 10^−5 M. The compounds of Table 3 b were used at concentrations of at least 10^−5 M, except for Doxorubicin where the concentration was 0.3×10^−5 M. As a control, vehicle treated or untreated cells were used.
In these experiments, a pre-incubation period of 17 hrs with the compounds was used, but it turned out that the pre-incubations period could be shortened, for example to 2 hrs, or skipped completely without affecting the inhibition profile. […] Similar results were obtained with the other specific compounds.
For the detection of specific inhibitors of niacinamide mononucleotide formation the following screening assay is especially useful which comprises the following steps: incubating cultured cells selected from HepG2 cells, U-87 MG cells, MCF-7 M1 cells, Caki-1 cells, HL-60 cells, PC3 cells, U-373 MG cells, A549 cells and KG-1a cells in the presence of [^14C]niacinamide and a compound to be tested for its activity to inhibit the cellular formation of niacinamide mononucleotide; effecting lysis of the cells; isolating and separating the [^14C]-labeled compounds and measuring the amount of formed labeled niacinamide mononucleotide, NAD and NADP. More concretely, cultured cells are seeded in a defined density in culture dishes, followed by incubation in the presence of a test compound and by the addition of [^14C]niacinamide for about 0.1 to 6 hrs. The cells are then lysed with perchloric acid and the resulting extract is neutralized. Finally, the [^14C]-labeled compounds are separated by thin-layer chromatography on cellulose matrices followed by UV detection and autoradiography. Non-radioactive niacinamide derivatives are used as standards. This assay allows simple and effective screening and selection of the compounds according to the invention.
Determination of NAD(P) Synthesis from [^14C]Niacinamide
The cells were detached from 75 cm^2 flasks by removing the growth medium and adding 3 ml trypsin/EDTA solution to each flask. After about 5 minutes incubation at 37° C., when the cells were detached from the surface of the dishes, trypsinization was stopped by adding 3 ml Richter's IMEM-ZO medium containing 10% FCS. The cells were suspended by repeated pipetting. For predilution, an aliquot of 20 μl was added to 10 ml Casyton isotonic solution (No. 043-90037P, Schärfe System, Reutlingen, Germany) using a Sysmex Auto Dilutor Type AD-260 (Toa, Medical Electronics Co. Ltd., Kobe, Japan). The cell number was determined by electronic cell volume measurements and counting with a CASY 1 Cell Counter+Analyzer System, Model TTC (Schärfe System, Reutlingen, Germany) equipped with a 60 μm capillary. Following dilution in IMEM-ZO containing 10% FCS, the cells were finally seeded at a density of 4×10^6/10 ml per sample in Ø 10 cm tissue culture dishes (Greiner, Frickenhausen, Germany) and incubated at 37° C. in a humidified atmosphere of 5% CO2 in air.
After one day, when the cells were adherent to the dishes, the cultures were replenished with IMEM-ZO containing 5% FCS plus the test compound or the vehicle. […] The cells were then incubated at 37° C. for 17 hours in a humidified atmosphere of 5% CO2 in air. This preincubation period is not necessary to achieve a distinct inhibitory action of the compounds and can be shortened for example to 2 or 0 hours. After this period of time, the medium was again discarded and 4 ml HEPES-buffered IMEM-ZO containing the test compound or the vehicle and 0.5 μCi/ml [^14C]niacinamide were added to each culture for an additional 5 hours at 37° C. and 100% humidity. […]

Hep G2 cells = assay: Nicotinamide Reversibility Assay / cell growth inhibition of Hep G2 cells (SRB, six days); conditions: for Reversal by Niacinamide: Hep G2 cell growth inhibition with added nicotinamide; for IC50: read-out: Cell growth inhibition IC50-values [μM] Hep G2
Description: Nicotinamide Reversibility Assay
Hep G2 cells derived from a human liver carcinoma were plated at a density of 20,000 cells/ml in 12-well plastic dishes. Cultivation occurred in Richters IMEM-ZO nutrient medium with 5% fetal calf serum (FCS) in a tissue culture incubator with a gas mixture of 5% CO2 and 95% air at a temperature of 37° C. One day after plating, the culture medium was aspirated from the cells and replaced by fresh medium which contained the respective concentrations of the test compounds and where applicable of the nicotinamide. For the individual concentrations and the controls without test compounds, three-fold batches were done for each. Three days after the beginning of treatment, the medium was again renewed with the test compounds and where applicable the nicotinamide. After six days of compound incubation, the test was ended and the protein amount in the individual wells was determined with the sulforhodamin-B-method (according. to P. Skehan et al.: New Colorimetric Cytotoxicity Assay for Anticancer-Drug Screening. J. Natl. Cancer Inst. 82: 1107-1112, 1990). The IC50-values were taken from the dose-response curves and given as a comparative measurement for the activity of the test compounds.

[2] = Table 3b, at least 10^-5 M, control 374.00
[3] = Table 3b, toxic compounds at at least 10^-5 M, control 531
[4] = Homo sapiens, 10 μM, read-out: Cellular NAD synthesis inhibition [%]
[5] = Homo sapiens, HepG2, 144 h, Hep G2, six days of compound incubation, SRB
[6] = minimum concentration which, despite initial growth, induced cell death below the number of initially seeded cells, Table 2
[7] = Homo sapiens, Table 3a, compound 10^-5 M, read-out: NAD(P) % of Control
[8] = Table 3a, compound 10^-5 M, 17 hrs pre-incubation, control 302.1
[9] = Table 3a, compound 10^-5 M, control 186.4

Row | Compound | Tox. (effective (toxic) concentration) in DCD (HepG2 cells) | NAD(P) % of Control ([1]; Table 3b, at least 10^-5 M) [%] | NAD(P) pmol/mg protein [1, 2] [pmol/mg protein] | NAD(P) pmol/10^6 cells [1, 3] [pmol/10^6 cells] | Reversal by Niacinamide (Hep G2 cells) | inhibition at 10 µM [1, 4] [%] | Influence of the addition of nicotinamide on the action on cell growth (FIGS. 20 to 27) (Hep G2 cells; Hep G2) | IC50 (Hep G2 cells; [5]) [µM] | minimal effective concentration (HepG2 cells; Table 5) [µM] | minimal effective concentration (HepG2 cells; [6]) [µM] | activity at 10 µM [1, 7] [%] | NAD(P) pmol/10^6 cells [1, 8] [pmol/10^6 cells] | NAD(P) pmol/mg protein [1, 9] [pmol/mg protein] | other results
1 | NC(=O)c1ccc(N)nc1 [6-Aminonicotinamide, reference compound] | Tox. 10000 μM | 88.0 | 329.34 | 466.98 | yes | – | – | – | – | – | – | – | – | inhibition at 30 µM ([1]; Homo sapiens, 30 μM, read-out: Cellular NAD synthesis inhibition [%]): 12%; IC50 (Hep G2 cells; Homo sapiens, HepG2, 144 h): 4 µM
2 | [N-]=[N+]=CC(=O)CC[C@H](N)C(=O)O [6-Diazo-5-oxo-L-norleucine, reference compound] | Tox. 100 μM | 110.5 | 413.55 | 586.39 | no | 0 | no measurable influence | 3 | – | – | – | – | – | –
3 | [N-]=[N+]=CC(=O)OC[C@H](N)C(=O)O [Azaserine, reference compound] | – | 100.0 | 374.23 | 530.64 | no | 0 | no measurable influence | 0.7 | – | – | – | – | – | –
4 | O=C(NCCCCC1CCN(C(c2ccccc2)c2ccccc2)CC1)Nc1cccnc1 [Compound K22130, 1-[4-(1-benzhydryl-piperidine-4-yl)-butyl]-3-pyridine-3-yl-urea] | – | – | – | – | – | – | – | 0.08 | 1 | 1 | – | – | – | –
5 | O=C(NCCCCCCNC(=O)N1CCN(C(c2ccccc2)c2ccccc2)CC1)NCc1cccnc1 [Compound K22132, 4-benzhydryl-piperazine-1-carboxylic acid-[6-(3-pyridine-3-yl-methylureido)-hexyl]-amide] | – | – | – | – | – | 99 | – | 0.02 | 0.03 | 0.1 | 1.4 | 4.1 | 2.5 | –
6 | S=C(NCCCCCC1CCN(C(c2ccccc2)c2ccccc2)CC1)Nc1cccnc1 [Compound K22234, 1-[5-(1-benzhydryl-piperidine-4-yl)-pentyl]-3-pyridine-3-yl-thiourea] | – | – | – | – | – | 99 | – | 0.2 | 0.3 | 0.3 | 1.1 | 3.4 | 2.1 | –
7 | O=C(CCCCCN1CCN(C(c2ccccc2)c2ccccc2)CC1)NCCc1cccnc1 [Compound K22265, 6-(4-benzhydryl-piperazine-1-yl)-hexanoic acid-(2-pyridine-3-yl-ethyl)-amide] | – | – | – | – | – | 98 | – | 2 | 3 | 3 | 2.4 | 7.3 | 4.5 | –
8 | S=C(NCCCCC=C(c1ccccc1)c1ccccc1)N/N=C/c1cccnc1 [Compound K22299, 1-(6,6-diphenyl-5-hexenyl)-3-(pyridine-3-yl-methylene-amino)-thiourea] | – | – | – | – | – | 99 | – | 0.1 | 0.3 | 0.3 | 0.5 | 1.6 | 1.0 | –
9 | O=C(NCCCCC1CCN(C(c2ccccc2)c2ccccc2)CC1)NCCc1cccnc1 [Compound K22339, 1-[4-(1-benzhydryl-piperidine-4-yl)-butyl]-3-(2-pyridine-3-ylethyl)-urea] | – | – | – | – | yes | – | can be antagonized | 0.1 | 0.1 | 0.3 | 0.8 | 2.5 | 1.6 | Day on which cell death occurred (HepG2 cells; concentrations of at least 0.3 μM, high density HepG2 culture): 4 days; inhibition at 1 µM ([1]; Homo sapiens, 1 μM, read-out: Cellular NAD synthesis inhibition [%]): 99%
10 | COc1cccc2c1C(=O)c1c(O)c3c(c(O)c1C2=O)C[C@@](O)(C(=O)CO)C[C@@H]3O[C@H]1C[C@H](N)[C@H](O)[C@H](C)O1 [Doxorubicin, reference compound] | – | – | – | – | no | – | no measurable influence | 0.02 | – | – | – | – | – | inhibition at 3 µM ([1]; Homo sapiens, 3 μM, read-out: Cellular NAD synthesis inhibition [%]): 0%; activity at 3 µM ([1]; Homo sapiens, Table 3b, 0.3×10^-5 M, read-out: NAD(P) % of Control): 102%
11 | NC(=O)c1c[se]c([C@@H]2O[C@H](CO)[C@@H](O)[C@H]2O)n1 [Selenazofurin, reference compound] | Tox. 30 μM | 70.2 | 372.29 | 372.29 | no | – | no measurable influence | – | – | – | – | – | – | Cellular NAD synthesis inhibition [%] ([1]; 10 μM): 30 (10 μM) %; IC50 (Hep G2 cells; Hep G2, six days of compound incubation, SRB): 0.7 µM
12 | NC(=O)c1csc([C@@H]2O[C@H](CO)[C@@H](O)[C@H]2O)n1 [Tiazofurin, reference compound] | Tox. 300 μM | 78.1 | 292.30 | 414.47 | no | – | no measurable influence | – | – | – | – | – | – | inhibition at 100 µM ([1]; Homo sapiens, 100 μM, read-out: Cellular NAD synthesis inhibition [%]): 22%; IC50 (Hep G2 cells; Homo sapiens, HepG2, 144 h): 10 µM
